Data reported in ChEMBL document CHEMBL1201862, “PubChem BioAssay data set” (2004).
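Interpolation was linear, between the two tested concentrations surrounding the appropriate level; five concentrations were tested over 48 hours in 96-well plates. At the GI50, growth is halved.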 The source made the active and inactive calls. Cut-off read from the data, not from the text of the source: active = GI50 up to about 1.1 µM and inactive = higher.

Assays:
Assay in all cases: NCI-60 cell line screen, 48 h
786-0 = tested on: 786-0
A498 = tested on: A498
A549 = tested on: A549
ACHN = tested on: ACHN
BT-549 = tested on: BT-549
CAKI-1 = tested on: CAKI-1
CCRF-CEM = tested on: CCRF-CEM
COLO 205 = tested on: COLO 205
DMS-114 = tested on: DMS-114
DMS-273 = tested on: DMS-273
DU-145 = tested on: DU-145
EKVX = tested on: EKVX
HCC 2998 = tested on: HCC 2998
HCT-116 = tested on: HCT-116
HCT-15 = tested on: HCT-15
HL-60 = tested on: HL-60
HOP-18 = tested on: HOP-18
HOP-62 = tested on: HOP-62
HOP-92 = tested on: HOP-92
HT-29 = tested on: HT-29
Hs-578T = tested on: Hs-578T
IGROV-1 = tested on: IGROV-1
K562 = tested on: K562
KM-20L2 = tested on: KM-20L2
KM12 = tested on: KM12
LOX IMVI = tested on: LOX IMVI
LXFL 529 = tested on: LXFL 529
M14 = tested on: M14
M19-MEL = tested on: M19-MEL
MCF7 = tested on: MCF7
MDA-MB-231 = tested on: MDA-MB-231
MDA-MB-435 = tested on: MDA-MB-435
MDA-N = tested on: MDA-N
MOLT-4 = tested on: MOLT-4
Malme-3M = tested on: Malme-3M
NCI-H226 = tested on: NCI-H226
NCI-H23 = tested on: NCI-H23
NCI-H460 = tested on: NCI-H460
NCI-H522 = tested on: NCI-H522
OVCAR-3 = tested on: OVCAR-3
OVCAR-4 = tested on: OVCAR-4
OVCAR-5 = tested on: OVCAR-5
OVCAR-8 = tested on: OVCAR-8
PC-3 = tested on: PC-3
RPMI-8226 = tested on: RPMI-8226
RXF 393 = tested on: RXF 393
SF-268 = tested on: SF-268
SF-295 = tested on: SF-295
SF-539 = tested on: SF-539
SK-MEL-28 = tested on: SK-MEL-28
SK-MEL-2 = tested on: SK-MEL-2
SK-MEL-5 = tested on: SK-MEL-5
SK-OV-3 = tested on: SK-OV-3
SN12C = tested on: SN12C
SNB-19 = tested on: SNB-19
SNB-75 = tested on: SNB-75
SNB-78 = tested on: SNB-78
SW-620 = tested on: SW-620
T47D = tested on: T47D
TK-10 = tested on: TK-10
U-251 = tested on: U-251
UACC-257 = tested on: UACC-257
UACC-62 = tested on: UACC-62
UO-31 = tested on: UO-31
DLD-1 = tested on: DLD-1
SR = tested on: SR

O=C(O)CC/C(=N\Nc1nsc2ccccc12)c1ccc(Cl)cc1
GI50 (786-0): 17.8 µM (inactive)
GI50 (A498): 37 µM (inactive)
GI50 (A549): > 49.1 µM (inactive)
GI50 (ACHN): 28.2 µM (inactive)
GI50 (BT-549): 25.1 µM (inactive)
GI50 (CAKI-1): 23.3 µM (inactive)
GI50 (CCRF-CEM): 6.84 µM (inactive)
GI50 (COLO 205): 43.4 µM (inactive)
GI50 (DMS-114): 25 µM (inactive)
GI50 (DMS-273): 20 µM (inactive)
GI50 (DU-145): 30.3 µM (inactive)
GI50 (EKVX): 69.5 µM (inactive)
GI50 (HCC 2998): 17.5 µM (inactive)
GI50 (HCT-116): 17.9 µM (inactive)
GI50 (HCT-15): 21.1 µM
GI50 (HL-60): 23.6 µM (inactive)
GI50 (HOP-18): 4.19 µM (inactive)
GI50 (HOP-62): 23.5 µM (inactive)
GI50 (HOP-92): 24 µM (inactive)
GI50 (HT-29): 29.8 µM (inactive)
GI50 (Hs-578T): 33.3 µM (inactive)
GI50 (IGROV-1): 30.1 µM (inactive)
GI50 (K562): 23 µM (inactive)
GI50 (KM-20L2): 41.1 µM (inactive)
GI50 (KM12): 22.9 µM (inactive)
GI50 (LOX IMVI): 12.2 µM (inactive)
GI50 (LXFL 529): 19.4 µM (inactive)
GI50 (M14): 25.1 µM (inactive)
GI50 (M19-MEL): 35 µM (inactive)
GI50 (MCF7): 5.75 µM (inactive)
GI50 (MDA-MB-231): 35.6 µM (inactive)
GI50 (MDA-MB-435): 27.5 µM (inactive)
GI50 (MDA-N): 31.3 µM (inactive)
GI50 (MOLT-4): 21.9 µM (inactive)
GI50 (Malme-3M): 45 µM (inactive)
GI50 (NCI-H226): > 100 µM (inactive)
GI50 (NCI-H23): 21.2 µM (inactive)
GI50 (NCI-H460): 28.4 µM (inactive)
GI50 (NCI-H522): 34.5 µM (inactive)
GI50 (OVCAR-3): 18.3 µM (inactive)
GI50 (OVCAR-4): 20.8 µM (inactive)
GI50 (OVCAR-5): 54.5 µM (inactive)
GI50 (OVCAR-8): 43.5 µM (inactive)
GI50 (PC-3): 20.9 µM (inactive)
GI50 (RPMI-8226): 11 µM (inactive)
GI50 (RXF 393): 23.5 µM (inactive)
GI50 (SF-268): 21.9 µM (inactive)
GI50 (SF-295): 32.8 µM (inactive)
GI50 (SF-539): 31.5 µM (inactive)
GI50 (SK-MEL-28): 17.5 µM (inactive)
GI50 (SK-MEL-2): 36.5 µM (inactive)
GI50 (SK-MEL-5): 22.2 µM (inactive)
GI50 (SK-OV-3): 32.6 µM (inactive)
GI50 (SN12C): 26 µM (inactive)
GI50 (SNB-19): > 64 µM (inactive)
GI50 (SNB-75): 28.5 µM (inactive)
GI50 (SNB-78): 31.6 µM (inactive)
GI50 (SW-620): 28.6 µM (inactive)
GI50 (T47D): 31.2 µM (inactive)
GI50 (TK-10): 46.9 µM (inactive)
GI50 (U-251): 18 µM (inactive)
GI50 (UACC-257): 25.5 µM (inactive)
GI50 (UACC-62): 19.8 µM (inactive)
GI50 (UO-31): 21.1 µM (inactive)

CCOC(=O)NC(=O)c1cn(CCN2CCN(C(=O)CCCCCCCCCCNc3ncnc4[nH]cnc34)CC2)c(=O)[nH]c1=O
GI50 (786-0): > 100 µM (inactive)
GI50 (A549): > 100 µM (inactive)
GI50 (ACHN): 37.8 µM (inactive)
GI50 (CAKI-1): 79.8 µM (inactive)
GI50 (CCRF-CEM): > 100 µM (inactive)
GI50 (COLO 205): > 100 µM (inactive)
GI50 (DLD-1): > 100 µM (inactive)
GI50 (DMS-273): > 100 µM (inactive)
GI50 (EKVX): > 100 µM (inactive)
GI50 (HCC 2998): > 100 µM (inactive)
GI50 (HCT-116): 40.1 µM (inactive)
GI50 (HCT-15): > 100 µM
GI50 (HL-60): 46.7 µM (inactive)
GI50 (HOP-18): > 100 µM (inactive)
GI50 (HOP-62): > 100 µM (inactive)
GI50 (HOP-92): > 100 µM (inactive)
GI50 (HT-29): > 100 µM (inactive)
GI50 (IGROV-1): > 100 µM (inactive)
GI50 (K562): 58.7 µM (inactive)
GI50 (KM-20L2): > 100 µM (inactive)
GI50 (KM12): > 100 µM (inactive)
GI50 (LOX IMVI): > 100 µM (inactive)
GI50 (LXFL 529): 39.8 µM (inactive)
GI50 (M14): > 100 µM (inactive)
GI50 (M19-MEL): > 100 µM (inactive)
GI50 (MOLT-4): 43.9 µM (inactive)
GI50 (Malme-3M): 6.7 µM (inactive)
GI50 (NCI-H226): > 100 µM (inactive)
GI50 (NCI-H23): > 100 µM (inactive)
GI50 (NCI-H460): > 100 µM (inactive)
GI50 (OVCAR-3): > 100 µM (inactive)
GI50 (OVCAR-4): > 100 µM (inactive)
GI50 (OVCAR-5): > 100 µM (inactive)
GI50 (OVCAR-8): > 100 µM (inactive)
GI50 (RPMI-8226): 94 µM (inactive)
GI50 (RXF 393): > 100 µM (inactive)
GI50 (SF-268): 13.1 µM (inactive)
GI50 (SF-295): > 100 µM (inactive)
GI50 (SF-539): > 100 µM (inactive)
GI50 (SK-MEL-28): 11.5 µM (inactive)
GI50 (SK-MEL-2): > 100 µM (inactive)
GI50 (SK-MEL-5): 50.4 µM (inactive)
GI50 (SK-OV-3): > 100 µM (inactive)
GI50 (SN12C): > 100 µM (inactive)
GI50 (SNB-19): > 100 µM (inactive)
GI50 (SNB-75): > 100 µM (inactive)
GI50 (SNB-78): 32.4 µM (inactive)
GI50 (SR): > 100 µM (inactive)
GI50 (SW-620): > 100 µM (inactive)
GI50 (TK-10): > 100 µM (inactive)
GI50 (U-251): > 100 µM (inactive)
GI50 (UACC-257): > 100 µM (inactive)
GI50 (UACC-62): 25.8 µM (inactive)
GI50 (UO-31): > 100 µM (inactive)

O=C(CC(=O)c1cccc2ccccc12)C(=O)Nc1nccs1
GI50 (786-0): > 100 µM (inactive)
GI50 (A498): > 100 µM (inactive)
GI50 (A549): > 100 µM (inactive)
GI50 (ACHN): > 100 µM (inactive)
GI50 (CAKI-1): > 100 µM (inactive)
GI50 (CCRF-CEM): > 100 µM (inactive)
GI50 (COLO 205): > 100 µM (inactive)
GI50 (DLD-1): > 100 µM (inactive)
GI50 (DMS-273): > 100 µM (inactive)
GI50 (EKVX): > 100 µM (inactive)
GI50 (HCC 2998): > 100 µM (inactive)
GI50 (HCT-116): > 100 µM (inactive)
GI50 (HCT-15): > 100 µM
GI50 (HL-60): > 100 µM (inactive)
GI50 (HOP-18): > 100 µM (inactive)
GI50 (HOP-62): > 100 µM (inactive)
GI50 (HOP-92): > 100 µM (inactive)
GI50 (HT-29): > 100 µM (inactive)
GI50 (IGROV-1): > 100 µM (inactive)
GI50 (K562): > 100 µM (inactive)
GI50 (KM-20L2): > 100 µM (inactive)
GI50 (KM12): > 100 µM (inactive)
GI50 (LOX IMVI): > 100 µM (inactive)
GI50 (LXFL 529): > 100 µM (inactive)
GI50 (M14): > 100 µM (inactive)
GI50 (M19-MEL): > 100 µM (inactive)
GI50 (MOLT-4): > 100 µM (inactive)
GI50 (Malme-3M): > 100 µM (inactive)
GI50 (NCI-H226): > 100 µM (inactive)
GI50 (NCI-H23): > 100 µM (inactive)
GI50 (NCI-H460): > 100 µM (inactive)
GI50 (NCI-H522): > 100 µM (inactive)
GI50 (OVCAR-3): > 100 µM (inactive)
GI50 (OVCAR-4): > 100 µM (inactive)
GI50 (OVCAR-5): > 100 µM (inactive)
GI50 (OVCAR-8): > 100 µM (inactive)
GI50 (RPMI-8226): > 100 µM (inactive)
GI50 (RXF 393): > 100 µM (inactive)
GI50 (SF-268): > 100 µM (inactive)
GI50 (SF-295): > 100 µM (inactive)
GI50 (SF-539): > 100 µM (inactive)
GI50 (SK-MEL-28): > 100 µM (inactive)
GI50 (SK-MEL-2): > 100 µM (inactive)
GI50 (SK-MEL-5): > 100 µM (inactive)
GI50 (SK-OV-3): > 100 µM (inactive)
GI50 (SN12C): > 100 µM (inactive)
GI50 (SNB-75): 66.2 µM (inactive)
GI50 (SNB-78): > 100 µM (inactive)
GI50 (SR): > 100 µM (inactive)
GI50 (SW-620): > 100 µM (inactive)
GI50 (TK-10): > 100 µM (inactive)
GI50 (U-251): > 100 µM (inactive)
GI50 (UACC-257): > 100 µM (inactive)
GI50 (UACC-62): > 100 µM (inactive)
GI50 (UO-31): > 100 µM (inactive)
